Measured values taken from paper PMC3402541, “Guanidylation and Tail Effects in Cationic Antimicrobial Lipopeptoids” (PLoS ONE, 2012).
Converted amounts (≈) assume the structure as drawn.

What was measured:
S.aureus ATCC 29213 = type: cell-based, Staphylococcus aureus; conditions: ATCC 29213, 24 h
Procedure, shortened: (§1)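 Testing follows CLSI macrobroth dilution with an inoculum of approximately 5 × 10^5 CFU/mL in cation-adjusted Mueller-Hinton broth. After 24 hr at 37°C the MIC was recorded, without replicate runs.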

MRSA ATCC 33592 = type: cell-based, methicillin-resistant S. aureus; conditions: ATCC 33592, 24 h
Procedure, shortened: as §1

MSSE 81388 CANWARD 2008 = type: cell-based, methicillin-susceptible S. epidermidis; conditions: 24 h
Procedure, shortened: as §1

MRSE CAN-ICU 61589 = type: cell-based, methicillin-resistant S. epidermidis; conditions: CAN-ICU 61589, 24 h
Procedure, shortened: as §1

E. faecalis ATCC 29212 = type: cell-based, Enterococcus faecalis; conditions: ATCC 29212, 24 h
Procedure, shortened: as §1

S.pneumoniae ATCC 49619 = type: cell-based, Streptococcus pneumoniae; conditions: ATCC 49619, 24 h
Procedure, shortened: as §1

P.aeruginosa ATCC 27853 = type: cell-based, Pseudomonas aeruginosa; conditions: ATCC 27853, 24 h
Procedure, shortened: as §1

[1] = system: P.aeruginosa CAN-ICU 62308; type: cell-based, Pseudomonas aeruginosa; conditions: CAN-ICU 62308, 24 h
Procedure, shortened: as §1

[2] = system: S. maltophilia CAN-ICU 62584; type: cell-based, Stenotrophomonas maltophilia; conditions: CAN-ICU 62584, 24 h
Procedure, shortened: as §1

[3] = system: A. baumannii CAN-ICU 63169; type: cell-based, Acinetobacter baumannii; conditions: CAN-ICU 63169, 24 h
Procedure, shortened: as §1

K.pneumoniae ATCC 13883 = type: cell-based, Klebsiella pneumoniae; conditions: ATCC 13883, 24 h
Procedure, shortened: as §1

ovine erythrocytes = test: Haemolytic assay; type: cell-based, sheep; conditions: ovine erythrocytes in Tris buffered saline, 30 minutes, absorbance of supernatant at 540 nm
Procedure, shortened: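 Washed sheep erythrocytes in Tris-buffered saline exposed to compound (50 μg/mL–1 mg/mL; final 4.08 x 10^8 cells/mL) for 30 min. After centrifugation, supernatant absorbance at 540 nm gave % haemolysis; 0.5% ammonium chloride as positive control.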

E.coli ATCC 25922 = type: cell-based, Escherichia coli; conditions: ATCC 25922, 24 h
Procedure, shortened: as §1

E.coli CAN-ICU 61714 = type: cell-based, Escherichia coli; conditions: CAN-ICU 61714, 24 h
Procedure, shortened: as §1

E.coli CAN-ICU 63074 = type: cell-based, Escherichia coli; conditions: CAN-ICU 63074, 24 h
Procedure, shortened: as §1

E. faecium ATCC 27270 = type: cell-based; conditions: ATCC 27270, 24 h
Procedure, shortened: as §1

CCCCCCCCCCCCCC(=O)N(CCCCN)CC(=O)N(CCCCN)CC(=O)N(CCCCN)CC(N)=O [C14-NlysNlysNlys]
MIC S.aureus (S.aureus ATCC 29213): 32 µg/mL (≈ 52.3 µM)
MIC S.aureus in the presence of 4% bovine serum albumin (S.aureus ATCC 29213): 512 µg/mL
MIC MRSA (MRSA ATCC 33592): 64 µg/mL (≈ 105 µM)
MIC MRSA in the presence of 4% bovine serum albumin (MRSA ATCC 33592): 512 µg/mL
MIC MSSE (MSSE 81388 CANWARD 2008): 32 µg/mL (≈ 52.3 µM)
MIC MSSE in the presence of 4% bovine serum albumin (MSSE 81388 CANWARD 2008): 512 µg/mL
MIC MRSE (MRSE CAN-ICU 61589): 16 µg/mL (≈ 26.1 µM)
MIC MRSE in the presence of 4% bovine serum albumin (MRSE CAN-ICU 61589): 512 µg/mL
MIC E. faecalis (E. faecalis ATCC 29212): 64 µg/mL (≈ 105 µM)
MIC E. faecalis in the presence of 4% bovine serum albumin (E. faecalis ATCC 29212): 512 µg/mL
MIC S.pneumoniae (S.pneumoniae ATCC 49619): 128 µg/mL (≈ 209 µM)
MIC S.pneumoniae in the presence of 4% bovine serum albumin (S.pneumoniae ATCC 49619): >512 µg/mL
MIC P.aeruginosa (P.aeruginosa ATCC 27853): 512 µg/mL (≈ 837 µM)
MIC P.aeruginosa in the presence of 4% bovine serum albumin (P.aeruginosa ATCC 27853): >512 µg/mL
MIC P.aeruginosa [1]: 512 µg/mL (≈ 837 µM)
MIC P.aeruginosa in the presence of 4% bovine serum albumin [1]: 512 µg/mL
MIC S. maltophilia [2]: >512 µg/mL
MIC S. maltophilia in the presence of 4% bovine serum albumin [2]: >512 µg/mL
MIC A. baumannii [3]: 512 µg/mL (≈ 837 µM)
MIC A. baumannii in the presence of 4% bovine serum albumin [3]: >512 µg/mL
MIC K.pneumoniae (K.pneumoniae ATCC 13883): 512 µg/mL (≈ 837 µM)
MIC K.pneumoniae in the presence of 4% bovine serum albumin (K.pneumoniae ATCC 13883): >512 µg/mL
Percent haemolysis at 100µg/mL of compound (ovine erythrocytes): 2.19%
MIC E.coli (E.coli ATCC 25922): 128 µg/mL (≈ 209 µM)
MIC E.coli in the presence of 4% bovine serum albumin (E.coli ATCC 25922): >512 µg/mL
MIC E.coli (E.coli CAN-ICU 61714): 128 µg/mL (≈ 209 µM)
MIC E.coli in the presence of 4% bovine serum albumin (E.coli CAN-ICU 61714): >512 µg/mL
MIC E.coli (E.coli CAN-ICU 63074): 128 µg/mL (≈ 209 µM)
MIC E.coli in the presence of 4% bovine serum albumin (E.coli CAN-ICU 63074): >512 µg/mL
MIC E. faecium (E. faecium ATCC 27270): 64 µg/mL (≈ 105 µM)
MIC E. faecium in the presence of 4% bovine serum albumin (E. faecium ATCC 27270): 512 µg/mL
